According to patent US20230082311A1, “DRUG FOR CURATIVE THERAPY OF INTRACTABLE HEREDITARY RENAL ALPORT SYNDROME” (NATIONAL UNIVERSITY CORPORATION KUMAMOTO UNIVERSITY, priority 2019, published 2023):
*1 amine or outer side, *2 acyl side, *3 side chain or, on linkers, in order; H or OH if unused. Where a SMILES comes first, the peptide text is derived from it. [ ]: non-standard residue; d: D form. X1 = COCCN1CCN(C[C@H](C)[C@@H](C(=O)[*:2])N(C)[*:1])CC1; MeBmt = C/C=C/C[C@@H](C)[C@@H](O)[C@H](NC)C(=O)O; NMeL = CN[C@@H](CC(C)C)C(=O)O; NMeV = CN[C@H](C(=O)O)C(C)C; dNMeA = CN[C@H](C)C(=O)O; Abu = CC[C@H](N)C(=O)O

Tests used:
[1] = tested on: α3WT/α4WT/α5G1241V collagen trimer (COL4a5/G1241V); assay type: cell-based, Human
calcineurin = conditions: cited from earlier work
[2] = tested on: α345 (COL4A5-G1244D) collagen trimer; experiment: Type IV collagen α345 trimer assay by Nano luciferase, COL4A5-G1244D stable line; assay type: cell-based, Human; conditions: for secretion level of collagen trimer as a function of concentration: COL4A5 (G1244D), concentration series up to 10 μM, FIG. 1-3; for collagen trimer secretion (luminescence of culture supernatant, ratio to DMSO-treated group): HEK293T line stably expressing α345 (COL4A5-G1244D), 24 hr treatment
Description: (§1) HEK293T cells (Human Embryonic Kidney 293) were obtained from the RIKEN Cell Bank, and thereafter addition of virus concentration solution for COL4A4-3FLAG (Puro), COL4A3-SmBiT (Hyg), COL4A5-LgBiT (BSD) (Omachi K. et al., Cell Chemical Biology 2018, 25, 634-643) in this order, exchange of drug resistance containing medium, passage and preservation of surviving cells were repeated whereby a cell line stably expressing α345 (IV) trimer was generated. COL4A5 variant G1244D was prepared using pLVSIN EF1α BSD COL4A5-LgBiT as a template and using Quikchange (registered trade mark) II Site-directed Mutagenesis Kit (STRATAGENE (registered trade mark)). The primers used were follows. PCR reactions (95° C. for 1 min, one cycle; 95° C. for 50 sec, 60° C. for 50 sec, 68° C. for 90 sec/1 kb, 18 cycles; 68° C. for […]) were performed with each Primer. The base sequence of DNA was confirmed by the cycle sequence method (Sigma-Aldrich JAPAN).
(§2) A cell line stably expressing split nano luciferase-fused α345 required for the NanoLuc α345 trimer assay was seeded on LumiNuc 96 well white plate (Thermo). After 24 hr, the cells were cultured in phenol red-free DMEM complete medium containing 2-phosphate ascorbic acid (200 μM), substrates were added to the culture supernatant and cells according to the standard method of NanoGlo live cell assay (Promega) reagent, and luminescence was confirmed with luminometer GloMax Navigator (Promega).
The cell line stably expressing α345 (COL4A5-G1244D) was detached and seeded on LumiNuc 96 well white plate (Thermo) at a density of 2×10^4 cells/well. 24 hr after seeding, the medium was exchanged with a phenol red-free DMEM complete medium containing 2-phosphate ascorbic acid (200 μM) and each concentration of cyclosporin A (CsA) (0.1, 0.5, 1, 2, 5, 10 μM), or each concentration of PSC-833 (0.5, 1, 2, 5, 10 μM), or each concentration of Alisporivir (0.1, 0.5, 5, 10 μM) and the cells were cultured. A substrate was added 24 hr later to the culture supernatant according to the standard method of NanoGlo live cell assay (Promega) reagent, and luminescence (index of trimer secretion) was measured by luminometer GloMax Navigator (Promega). The control solvent (CON) used was dimethyl sulfoxide (DMSO).

[3] = tested on: α3WT/α4WT/α5WT collagen trimer (COL4a5/WT); experiment: Type IV collagen α345 trimer assay by Nano luciferase, wild-type COL4A5 stable line; assay type: cell-based, Human; conditions: wild-type stable cell line, FIG. 5 upper
Description: as §1, with “The base sequence of DNA was confirmed by the cycle sequence method (Sigma-Aldrich JAPAN).” left out
as §2, with “(Promega). […]” for “(Promega).”

[4] = tested on: COL4A5 AS mutants (G227S, G594D, G624D, G869R, S916G, G1030S, G1107R, G1140V, G1220D, G1241C, G1241V, G1244D, P1517T, R1569Q) and Exon41-deleted variant; assay type: cell-based, Human; conditions: panel of 14 AS mutants, Exon41-deleted variant and wild type, FIG. 7
PPIF (cyclophilin D) [5] = target: T1, PPIF (cyclophilin D) (Homo sapiens, UniProt P30405); experiment: Collagen trimer secretion promotion in G1244D HEK293T cells with cyclophilins knocked down with siRNA; assay type: cell-based; conditions: siRNA 15 nM against 11 cyclophilins, CsA 1 μM, Alisporivir 2 μM, FIG. 8
T1 construct: endogenous in cells; host or cells: HEK293T stably expressing split-NanoLuc alpha345 (COL4A5-G1244D), with or without siRNA knock-down
Description: To elucidate the mechanism of collagen trimer secretion promotion by CsA and Alisporivir, cells in which cyclophilins to which CsA and Alisporivir can bind were knocked down with siRNA were produced, and the collagen trimer secretion promoting effect by CsA and Alisporivir in the cells was investigated comprehensively.
As the cells, G1244D mutation-introduced HEK293T cells—for which the effect of CsA and Alisporivir were confirmed in previous experiments—were used.
(§3) An cell line stably expressing split nano luciferase-fused α345 required for the NanoLuc α345 trimer assay was seeded on a 6 well plate (Corning) at 3×10^5 cells/well, and the siRNAs shown in Table 1 were introduced by lipofection at the time of subconfluence. The target genes are all cyclophilins, and the abbreviations in Table 1 indicate the following substances.
Lipofectamine RNAi Max was used for transfection of siRNA. The final siRNA concentration was adjusted to 15 nM, and transfection was performed according to the standard protocol. 24 hr after siRNA introduction, the cells were detached and reseeded on a LumiNuc 96 well white plate (Thermo) at 4×10^4 cells/well. […] Substrates were added 24 hr later to the culture supernatant and cells according to the standard method of NanoGlo live cell assay (Promega) reagent, and luminescence (index of trimer secretion) was measured by luminometer GloMax Navigator (Promega). […]

[6] = clinical trials (Zeuzem 2015; Buti 2015); cited from earlier work
PPIF (cyclophilin D) [7] = target: T1, PPIF (cyclophilin D); experiment: Collagen trimer secreting ability of G1244D HEK293T cells after knock-down of cyclophilins with siRNA; assay type: cell-based; conditions: G1244D mutant-transfected HEK293T cells, FIG. 9
Description: as §3
Lipofectamine RNAi Max was used for transfection of siRNA. The final siRNA concentration was adjusted to 15 nM, and transfection was performed according to the standard protocol. 24 hr after siRNA introduction, the cells were detached and reseeded on a LumiNuc 96 well white plate (Thermo) at 4×10^4 cells/well. 24 hr thereafter, the medium was exchanged with a phenol red-free DMEM complete medium containing 2-phosphate ascorbic acid (200 μM) and Cyclosporin A (CsA) (1 μM), or Alisporivir (2 μM) and the cells were cultured. Substrates were added 24 hr later to the culture supernatant and cells according to the standard method of NanoGlo live cell assay (Promega) reagent, and luminescence (index of trimer secretion) was measured by luminometer GloMax Navigator (Promega). The control solvent (CON) used was DMSO. […]

T1 sequence (P30405 30-207): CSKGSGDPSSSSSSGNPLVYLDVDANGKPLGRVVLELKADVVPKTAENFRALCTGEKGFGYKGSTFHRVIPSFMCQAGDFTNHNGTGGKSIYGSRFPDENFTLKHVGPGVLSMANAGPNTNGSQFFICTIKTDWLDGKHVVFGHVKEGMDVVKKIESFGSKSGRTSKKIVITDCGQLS

For `C/C=C/C[C@@H](C)[C@@H](O)[C@H]1C(=O)N[C@@H](CC)C(=O)N(C)[C@H](C)C(=O)N(C)[C@@H]([C@@H](C)CN2CCN(CCOC)CC2)C(=O)N[C@@H](C(C)C)C(=O)N(C)[C@@H](CC(C)C)C(=O)N[C@@H](C)C(=O)N[C@H](C)C(=O)N(C)[C@@H](CC(C)C)C(=O)N(C)[C@@H](CC(C)C)C(=O)N(C)[C@@H](C(C)C)C(=O)N1C` [NIM258] (cyclo(A[dA][NMeL][NMeL][NMeV][MeBmt][Abu][dNMeA][X1]V[NMeL])), the “extracellular secretion of collagen trimer compared with DMSO-administered group” value ([1]; 5 μM or 10 μM, G1241V cell line per FIG. 6) is given as “extracellular secretion of collagen trimers was promoted” and the calcineurin inhibition (calcineurin) is given as “does not inhibit calcineurin”.
With `C/C=C/C[C@@H](C)[C@@H](O)[C@H]1C(=O)N[C@@H](CC)C(=O)N(C)[C@H](C)C(=O)N(CC)[C@@H](C(C)C)C(=O)N[C@@H](C(C)C)C(=O)N(C)[C@@H](CC(C)C)C(=O)N[C@@H](C)C(=O)N[C@H](C)C(=O)N(C)[C@@H](CC(C)C)C(=O)N(C)[C@@H](CC(C)C)C(=O)N(C)[C@@H](C(C)C)C(=O)N1C` [Alisporivir] the “secretion level of collagen trimer as a function of concentration” value [2] was “increases depending on the concentration of Alisporivir”, the “action of promoting collagen trimer secretion compared with CsA” value ([2]; COL4A5-G1244D, concentrations of 5 μM and 10 μM, FIG. 4) was “stronger action of promoting collagen trimer secretion than CsA” and the “collagen trimer secretion (luminescence of culture supernatant, ratio to DMSO-treated group)” value [2] was “showed an action of promoting collagen trimer secretion”. For the same molecule, the “secretion of trimers of COL4a5/WT-containing collagen” value [3] was “did not show an influence on COL4a5/WT”, the “extracellular secretion of collagen trimers, COL4a5/G1241V” value ([1]; G1241V stable cell line, FIG. 5 lower) was “promoted extracellular secretion of collagen trimers” and the “collagen trimer secretion in COL4A5 variants” value [4] was “exhibited a significant effect in G1030S, G1107R, G1220D, G1241C, G1241V, G1244D, and Exon41-deleted variants”. For the same molecule, the “effect of promoting the secretion of collagen trimers in cyclophilin knock-down cells” value (PPIF (cyclophilin D) [5]) was “decreased only in the cells knocked down with PPIF (cyclophilin D)”, the calcineurin inhibition (calcineurin) was “does not inhibit calcineurin” and the “nephrotoxicity in clinical trials” value [6] was “no nephrotoxicity”.
In the case of “siPPIF: siRNA against human PPIF (cyclophilin D), sense GGCAGAUGUCGUCCCAAAG, antisense CUUUGGGACGACAUCUGCC (SEQ ID NO: 27/28) (listed as RNA, chemistry not given here)”, the “secretion level of collagen trimer, ratio to siGL2-treated group” value (PPIF (cyclophilin D) [7]) is reported as “promotion of collagen trimer secretion was confirmed”.
In the case of `C/C=C/C[C@@H](C)C(=O)[C@H]1C(=O)N[C@@H](C(C)C)C(=O)N(C)CC(=O)N(C)[C@@H](CC(C)C)C(=O)N[C@@H](C(C)C)C(=O)N(C)[C@@H](CC(C)C)C(=O)N[C@@H](C)C(=O)N[C@H](C)C(=O)N(C)[C@@H](CC(C)C)C(=O)N(C)[C@@H](CC(C)C)C(=O)N(C)[C@@H](C(C)C)C(=O)N1C` [PSC-833], the “secretion level of collagen trimer as a function of concentration” value [2] is reported as “does not increase even when the amount of PSC-833 is increased to 10 μM”, the “intracellular expression level of collagen trimer” value ([2]; COL4A5-G1244D line, PSC-833 0.5-10 μM) is reported as “did not affect” and the “collagen trimer secretion (luminescence of culture supernatant, ratio to DMSO-treated group)” value [2] is reported as “did not affect collagen trimer secretion”. The calcineurin inhibition (calcineurin) was “does not inhibit calcineurin”.
